Source: patent publication US20080009418A1, “Selective Inhibitors” (Alchemia LTD., priority 2004, published 2008)

Tests used:
Human κ-Opioid (KOP) = molecular target: T1, Human κ-Opioid (KOP) (Homo sapiens, UniProt P41145); experiment: Radioligand binding, human κ-opioid (KOP) membranes, filtration, [3H]-Diprenorphine; conditions: compound at 10 μM, [3H]-Diprenorphine
T1 construct: purchased Perkin Elmer Biosignal
Method in brief: (§1)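 Filtration binding on cloned human receptor membranes (1 Unit/well), [125I]-Substance P for NK1 and [3H]-Diprenorphine for KOP, 1 h at room temperature. Filters PEI-presoaked, washed with cold 50 mM Tris-HCl pH 7.4, counted by scintillation; percent inhibition calculated, reference ligand defining non-specific binding.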

Mouse urotensin (mUR2) = molecular target: T2, Mouse urotensin (mUR2) (Mus musculus, UniProt Q8VIH9); experiment: Radioligand binding, mouse urotensin mUR2 membranes, FlashPlate, [125I]-Urotensin II; conditions: compound at 10 μM, [125I]-Urotensin II
T2 construct: purchased Perkin Elmer Biosignal
T2 sequence (Q8VIH9 1-385): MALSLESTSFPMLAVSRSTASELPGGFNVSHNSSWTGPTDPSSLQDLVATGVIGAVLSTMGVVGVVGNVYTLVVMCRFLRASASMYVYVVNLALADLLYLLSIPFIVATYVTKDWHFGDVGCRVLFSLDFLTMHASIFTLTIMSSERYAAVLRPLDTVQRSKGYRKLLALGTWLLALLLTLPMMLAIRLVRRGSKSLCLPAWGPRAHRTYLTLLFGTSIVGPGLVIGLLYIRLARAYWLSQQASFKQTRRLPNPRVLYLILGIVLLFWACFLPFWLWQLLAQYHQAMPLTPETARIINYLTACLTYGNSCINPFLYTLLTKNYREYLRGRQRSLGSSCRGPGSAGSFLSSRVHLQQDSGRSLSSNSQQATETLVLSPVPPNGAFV
Method in brief: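 Cloned mouse urotensin (mUR2) receptor membranes from Perkin Elmer Biosignal were immobilized in FlashPlate microplates using a proprietary coating. Each well got 19.5 μl buffer, then 0.5 μl of DMSO, reference ligand, or compound. Adding 5 μl of [125I]-Urotensin II, diluted to 5× final concentration in binding buffer, started binding. Plates were sealed with TopSeal-A and incubated 1 hour at room temperature in the dark. Wells were counted for 30 seconds each on a TopCount after a 60-second delay, and percentage inhibition was calculated.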

Human Melanocortin (MC4) = molecular target: T3, Human Melanocortin (MC4) (Homo sapiens, UniProt P32245); experiment: Radioligand binding, human melanocortin MC4 membranes, FlashPlate, [125I]-NDP-αMSH; conditions: compound at 10 μM, [125I]-NDP-αMSH
T3 construct: purchased Perkin Elmer Biosignal
T3 sequence (P32245 whole entry): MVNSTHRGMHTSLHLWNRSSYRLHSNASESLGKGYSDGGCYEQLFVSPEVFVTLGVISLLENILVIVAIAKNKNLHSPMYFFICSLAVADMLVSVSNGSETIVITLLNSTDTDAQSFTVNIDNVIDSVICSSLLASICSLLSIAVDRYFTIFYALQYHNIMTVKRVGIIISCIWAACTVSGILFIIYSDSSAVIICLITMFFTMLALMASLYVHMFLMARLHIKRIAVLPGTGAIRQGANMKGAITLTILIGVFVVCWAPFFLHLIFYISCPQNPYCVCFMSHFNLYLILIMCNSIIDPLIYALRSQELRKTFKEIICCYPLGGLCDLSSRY
Method in brief: (§2)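 Cloned human receptor membranes were coated onto FlashPlate wells and incubated with radioligand and compound (added from a 0.5 mM DMSO daughter plate) for 1 hour at room temperature in the dark. Scintillation counting gave percent inhibition, with DMSO defining total and reference ligand defining non-specific binding.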

Human μ-opioid (MOP) = molecular target: T4, Human μ-opioid (MOP) (Homo sapiens, UniProt P35372); experiment: Radioligand binding, human μ-opioid (MOP) membranes, FlashPlate, [3H]-Naloxone; conditions: compound at 10 μM, [3H]-Naloxone
T4 construct: purchased Perkin Elmer Biosignal
T4 sequence (P35372 whole entry): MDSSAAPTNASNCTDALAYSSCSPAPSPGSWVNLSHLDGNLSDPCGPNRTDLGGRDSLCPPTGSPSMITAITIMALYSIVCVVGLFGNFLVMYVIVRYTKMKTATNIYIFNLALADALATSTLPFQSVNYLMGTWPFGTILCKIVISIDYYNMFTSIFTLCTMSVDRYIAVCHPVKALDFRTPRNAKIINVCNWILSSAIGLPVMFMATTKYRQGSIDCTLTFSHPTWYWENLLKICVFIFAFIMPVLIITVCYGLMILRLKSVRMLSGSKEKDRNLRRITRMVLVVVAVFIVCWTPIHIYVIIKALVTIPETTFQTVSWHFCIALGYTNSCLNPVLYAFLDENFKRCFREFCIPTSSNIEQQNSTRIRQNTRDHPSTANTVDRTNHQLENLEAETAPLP
Method in brief: as §2

[1] = molecular target: T5, Human melanin-concentrating hormone (MCH1) (Homo sapiens, UniProt Q99705); experiment: Radioligand binding, human melanin-concentrating hormone MCH1 membranes, FlashPlate, [125I]-S36057; conditions: compound at 10 μM
T5 construct: purchased Perkin Elmer Biosignal
T5 sequence (Q99705 whole entry): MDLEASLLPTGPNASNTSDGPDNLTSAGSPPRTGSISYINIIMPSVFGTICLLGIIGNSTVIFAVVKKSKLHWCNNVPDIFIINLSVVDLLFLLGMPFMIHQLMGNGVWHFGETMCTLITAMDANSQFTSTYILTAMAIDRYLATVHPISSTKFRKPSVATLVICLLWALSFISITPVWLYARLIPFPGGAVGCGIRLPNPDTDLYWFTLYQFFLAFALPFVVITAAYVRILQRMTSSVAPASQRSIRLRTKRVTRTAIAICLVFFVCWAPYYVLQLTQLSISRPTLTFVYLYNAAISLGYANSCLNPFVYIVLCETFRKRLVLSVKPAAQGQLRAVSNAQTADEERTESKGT
Method in brief: as §2

Human neurokinin (NK1) = molecular target: T6, Human neurokinin (NK1) (Homo sapiens, UniProt P25103); experiment: Radioligand binding, human neurokinin NK1 membranes, filtration, [125I]-Substance P; conditions: compound at 10 μM, [125I]-Substance P
T6 construct: purchased Perkin Elmer Biosignal
T6 sequence (P25103 whole entry): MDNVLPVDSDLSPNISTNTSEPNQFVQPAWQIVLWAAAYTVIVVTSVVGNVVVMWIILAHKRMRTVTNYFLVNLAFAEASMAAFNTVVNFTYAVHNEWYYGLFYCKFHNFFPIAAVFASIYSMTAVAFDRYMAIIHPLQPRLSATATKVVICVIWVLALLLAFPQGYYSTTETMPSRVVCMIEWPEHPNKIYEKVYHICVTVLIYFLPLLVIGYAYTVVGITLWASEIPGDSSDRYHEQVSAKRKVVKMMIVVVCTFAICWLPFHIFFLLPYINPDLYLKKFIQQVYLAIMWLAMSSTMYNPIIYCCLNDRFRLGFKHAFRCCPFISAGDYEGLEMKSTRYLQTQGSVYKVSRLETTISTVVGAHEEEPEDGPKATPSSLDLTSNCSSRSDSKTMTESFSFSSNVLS
Method in brief: as §1

[2] = molecular target: T7, Human neuropeptide Y (NPY-Y1) (Homo sapiens, UniProt P25929); experiment: Radioligand binding, human neuropeptide Y NPY-Y1 membranes, FlashPlate, [125I]-PYY; conditions: compound at 10 μM, [125I]-PYY
T7 construct: purchased Perkin Elmer Biosignal
T7 sequence (P25929 1-384): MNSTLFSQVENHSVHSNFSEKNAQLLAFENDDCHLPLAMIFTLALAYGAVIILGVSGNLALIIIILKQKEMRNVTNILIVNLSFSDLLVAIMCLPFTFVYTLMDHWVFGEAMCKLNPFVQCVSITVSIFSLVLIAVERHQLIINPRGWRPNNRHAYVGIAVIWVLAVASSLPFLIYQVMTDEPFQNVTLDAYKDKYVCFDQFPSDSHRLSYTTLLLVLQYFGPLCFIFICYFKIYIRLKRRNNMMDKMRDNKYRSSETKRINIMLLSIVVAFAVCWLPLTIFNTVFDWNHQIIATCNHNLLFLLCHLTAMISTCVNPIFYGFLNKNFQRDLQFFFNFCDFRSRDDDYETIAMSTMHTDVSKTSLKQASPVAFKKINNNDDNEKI
Method in brief: as §2

Human Melanocortin (MC3) = molecular target: T8, Human Melanocortin (MC3) (Homo sapiens, UniProt P41968); experiment: Radioligand binding, human melanocortin MC3 membranes, FlashPlate, [125I]-NDP-αMSH; conditions: compound at 10 μM, [125I]-NDP-αMSH
T8 construct: purchased Perkin Elmer Biosignal
T8 sequence (P41968 whole entry): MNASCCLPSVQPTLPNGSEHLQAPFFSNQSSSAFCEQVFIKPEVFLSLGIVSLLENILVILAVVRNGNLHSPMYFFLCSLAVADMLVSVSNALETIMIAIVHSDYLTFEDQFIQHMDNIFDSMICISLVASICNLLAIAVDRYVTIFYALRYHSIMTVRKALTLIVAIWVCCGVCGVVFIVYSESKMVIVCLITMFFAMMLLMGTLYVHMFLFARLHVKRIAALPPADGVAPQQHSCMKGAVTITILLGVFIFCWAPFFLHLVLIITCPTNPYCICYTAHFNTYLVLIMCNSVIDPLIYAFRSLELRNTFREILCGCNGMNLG
Method in brief: as §2

Human opioid (ORL1) = molecular target: T9, Human opioid (ORL1) (Homo sapiens, UniProt P41146); experiment: Radioligand binding, human opioid ORL1 membranes, FlashPlate, [125I]-Nociceptin; conditions: compound at 10 μM, [125I]-Nociceptin
T9 construct: purchased Perkin Elmer Biosignal
T9 sequence (P41146 whole entry): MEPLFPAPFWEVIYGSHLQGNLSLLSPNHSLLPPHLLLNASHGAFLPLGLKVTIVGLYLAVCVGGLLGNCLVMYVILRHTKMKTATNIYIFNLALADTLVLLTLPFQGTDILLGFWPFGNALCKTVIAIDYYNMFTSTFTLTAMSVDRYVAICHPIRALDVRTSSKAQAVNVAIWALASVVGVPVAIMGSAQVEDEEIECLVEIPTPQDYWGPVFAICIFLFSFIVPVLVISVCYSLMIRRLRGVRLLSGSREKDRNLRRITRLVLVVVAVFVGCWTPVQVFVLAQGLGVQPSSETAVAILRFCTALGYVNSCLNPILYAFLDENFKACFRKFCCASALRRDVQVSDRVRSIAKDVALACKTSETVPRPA
Method in brief: as §2

Human melanocortin (MC5) = molecular target: T10, Human melanocortin (MC5) (Homo sapiens, UniProt P33032); experiment: Radioligand binding, human melanocortin MC5 membranes, FlashPlate, [125I]-NDP-αMSH; conditions: compound at 10 μM, [125I]-NDP-αMSH
T10 construct: purchased Perkin Elmer Biosignal
T10 sequence (P33032 whole entry): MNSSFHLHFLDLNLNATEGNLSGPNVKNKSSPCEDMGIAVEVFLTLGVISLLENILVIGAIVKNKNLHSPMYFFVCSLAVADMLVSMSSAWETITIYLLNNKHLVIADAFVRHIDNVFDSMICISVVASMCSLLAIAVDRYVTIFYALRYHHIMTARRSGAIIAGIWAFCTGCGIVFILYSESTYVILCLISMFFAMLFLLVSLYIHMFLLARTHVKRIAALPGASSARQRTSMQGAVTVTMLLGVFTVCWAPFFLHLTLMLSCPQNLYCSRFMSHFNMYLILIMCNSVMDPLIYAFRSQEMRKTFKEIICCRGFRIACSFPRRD
Method in brief: as §2

Human δ-opioid (DOP) = molecular target: T11, Human δ-opioid (DOP) (Homo sapiens, UniProt P41143); experiment: Radioligand binding, human δ-opioid (DOP) membranes, FlashPlate, [3H]-Bremazocine; conditions: compound at 10 μM, [3H]-Bremazocine
T11 construct: purchased Perkin Elmer Biosignal
T11 sequence (P41143 whole entry): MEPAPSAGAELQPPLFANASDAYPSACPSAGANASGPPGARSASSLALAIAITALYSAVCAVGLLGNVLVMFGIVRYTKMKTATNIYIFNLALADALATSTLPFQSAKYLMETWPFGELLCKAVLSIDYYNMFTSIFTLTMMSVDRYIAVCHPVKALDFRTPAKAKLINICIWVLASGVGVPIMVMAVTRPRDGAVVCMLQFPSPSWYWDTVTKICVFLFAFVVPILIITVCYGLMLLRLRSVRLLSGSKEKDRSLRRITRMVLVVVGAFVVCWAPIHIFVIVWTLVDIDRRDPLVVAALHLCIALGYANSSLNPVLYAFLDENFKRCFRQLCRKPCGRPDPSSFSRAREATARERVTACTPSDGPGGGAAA
Method in brief: as §2

T1 sequence (P41145 whole entry): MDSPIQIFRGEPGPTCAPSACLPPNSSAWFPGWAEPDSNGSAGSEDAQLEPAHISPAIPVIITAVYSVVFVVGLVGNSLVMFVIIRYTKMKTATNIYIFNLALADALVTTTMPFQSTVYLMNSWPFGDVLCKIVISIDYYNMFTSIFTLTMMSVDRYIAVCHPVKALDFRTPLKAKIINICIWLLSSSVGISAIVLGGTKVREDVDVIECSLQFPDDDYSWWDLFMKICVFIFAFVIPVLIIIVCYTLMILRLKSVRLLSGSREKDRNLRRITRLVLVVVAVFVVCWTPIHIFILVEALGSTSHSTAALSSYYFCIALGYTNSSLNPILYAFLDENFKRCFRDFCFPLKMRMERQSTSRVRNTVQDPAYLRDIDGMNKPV

In the case of `COCC1OC(OCCc2ccccc2)C(NC(=O)CCCN)C(OCc2ccc(Cl)cc2)C1O` (stereo not drawn) [compound 222], the “A2: inhibition of radioligand binding” value (Human κ-Opioid (KOP); filtration) is reported as “− (“−” indicates less than 50% inhibition at 10 μM)”, the “A11: inhibition of radioligand binding” value (Mouse urotensin (mUR2); FlashPlate) is reported as “− (“−” indicates less than 50% inhibition at 10 μM)” and the “A4: inhibition of radioligand binding” value (Human Melanocortin (MC4); FlashPlate) is reported as “− (“−” indicates less than 50% inhibition at 10 μM)”. For the same compound, the “A7: inhibition of radioligand binding” value (Human μ-opioid (MOP); FlashPlate) was “− (“−” indicates less than 50% inhibition at 10 μM)”, the “A6: inhibition of radioligand binding” value ([1]; [125I]-S36057, FlashPlate) was “− (“−” indicates less than 50% inhibition at 10 μM)” and the “A8: inhibition of radioligand binding” value (Human neurokinin (NK1); filtration) was “+ (“+” indicates greater than 50% inhibition at 10 μM)”. The “A9: inhibition of radioligand binding” value ([2]; FlashPlate) was “− (“−” indicates less than 50% inhibition at 10 μM)”, the “A3: inhibition of radioligand binding” value (Human Melanocortin (MC3); FlashPlate) was “− (“−” indicates less than 50% inhibition at 10 μM)” and the “A10: inhibition of radioligand binding” value (Human opioid (ORL1); FlashPlate) was “− (“−” indicates less than 50% inhibition at 10 μM)”. For the same compound, the “A5: inhibition of radioligand binding” value (Human melanocortin (MC5); FlashPlate) was “+ (“+” indicates greater than 50% inhibition at 10 μM)” and the “A1: inhibition of radioligand binding” value (Human δ-opioid (DOP); FlashPlate) was “− (“−” indicates less than 50% inhibition at 10 μM)”.
For `COC[C@H]1OC(OCc2ccc3ccccc3c2)[C@H](NC(=O)CCCN)[C@@H](OCc2cccc(O)c2)[C@@H]1O` (stereo partly drawn) [compound 134], the “A2 radioligand binding, percentage inhibition” value (Human κ-Opioid (KOP)) was “− (“−” indicates less than 50% inhibition at 10 μM)”, the “A11 radioligand binding, percentage inhibition” value (Mouse urotensin (mUR2)) was “− (“−” indicates less than 50% inhibition at 10 μM)” and the “A4 radioligand binding, percentage inhibition” value (Human Melanocortin (MC4)) was “− (“−” indicates less than 50% inhibition at 10 μM)”. For the same compound, the “A7 radioligand binding, percentage inhibition” value (Human μ-opioid (MOP)) was “+ (“+” indicates greater than 50% inhibition at 10 μM)”, the “A6 radioligand binding, percentage inhibition” value ([1]; [125I]-S36057) was “− (“−” indicates less than 50% inhibition at 10 μM)” and the “A8 radioligand binding, percentage inhibition” value (Human neurokinin (NK1)) was “− (“−” indicates less than 50% inhibition at 10 μM)”. The “A9 radioligand binding, percentage inhibition” value [2] was “− (“−” indicates less than 50% inhibition at 10 μM)”, the “A3 radioligand binding, percentage inhibition” value (Human Melanocortin (MC3)) was “− (“−” indicates less than 50% inhibition at 10 μM)” and the “A10 radioligand binding, percentage inhibition” value (Human opioid (ORL1)) was “− (“−” indicates less than 50% inhibition at 10 μM)”. The “A5 radioligand binding, percentage inhibition” value (Human melanocortin (MC5)) was “− (“−” indicates less than 50% inhibition at 10 μM)” and the “A1 radioligand binding, percentage inhibition” value (Human δ-opioid (DOP)) was “− (“−” indicates less than 50% inhibition at 10 μM)”.
For `NCCC(=O)NC1C(OCc2ccccc2)OC(COCc2ccc(Cl)cc2)C(O)C1OCc1ccc2ccccc2c1` (stereo not drawn) [compound 368], the “A2: inhibition of radioligand binding, human κ-opioid (KOP)” value (Human κ-Opioid (KOP)) was “− (“−” indicates less than 50% inhibition at 10 μM)”, the “A11: inhibition of radioligand binding, mouse urotensin (mUR2)” value (Mouse urotensin (mUR2)) was “− (“−” indicates less than 50% inhibition at 10 μM)” and the “A4: inhibition of radioligand binding, human melanocortin (MC4)” value (Human Melanocortin (MC4)) was “+ (“+” indicates greater than 50% inhibition at 10 μM)”. For the same compound, the “A7: inhibition of radioligand binding, human μ-opioid (MOP)” value (Human μ-opioid (MOP)) was “− (“−” indicates less than 50% inhibition at 10 μM)”, the “A6: inhibition of radioligand binding, human melanin-concentrating hormone (MCH1)” value ([1]; [125I]-S36057) was “− (“−” indicates less than 50% inhibition at 10 μM)” and the “A8: inhibition of radioligand binding, human neurokinin (NK1)” value (Human neurokinin (NK1)) was “+ (“+” indicates greater than 50% inhibition at 10 μM)”. The “A9: inhibition of radioligand binding, human neuropeptide Y (NPY-Y1)” value [2] was “− (“−” indicates less than 50% inhibition at 10 μM)”, the “A3: inhibition of radioligand binding, human melanocortin (MC3)” value (Human Melanocortin (MC3)) was “+ (“+” indicates greater than 50% inhibition at 10 μM)” and the “A10: inhibition of radioligand binding, human opioid (ORL1)” value (Human opioid (ORL1)) was “− (“−” indicates less than 50% inhibition at 10 μM)”. For the same compound, the “A5: inhibition of radioligand binding, human melanocortin (MC5)” value (Human melanocortin (MC5)) was “+ (“+” indicates greater than 50% inhibition at 10 μM)” and the “A1: inhibition of radioligand binding, human δ-opioid (DOP)” value (Human δ-opioid (DOP)) was “− (“−” indicates less than 50% inhibition at 10 μM)”.
